PubChem BioAssay AID2060612 (Molecular Pharmacology Branch, DTP, NCI, 2025)
Blank lines part the entries; values can stand above or below the compound they belong to.

Tested on: 565232-114-T-J1-PDC complex spheroid viability
Experiment: Anticancer human tumor 565232-114-T-J1-PDC patient-derived bladder carcinoma cell line growth inhibition [CLK]
Details: for IC50: curve of first compound; for viability, T/C: stronger effect = lower value
Outline: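 Patient-derived tumor cells grown as complex spheroids with HUVEC endothelial cells and mesenchymal stem cells, treated with drug combinations. Concentrations descend in half-log steps from near clinical Cmax, or from 10 microM if Cmax unknown.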

[1] = second compound 0.0316 µM, first compound 0.0316 µM
[2] = second compound 0.0316 µM, first compound 0.1 µM
[3] = second compound 0.0316 µM, first compound 0.316 µM
[4] = second compound 0.0316 µM, first compound 1 µM
[5] = second compound 0.0316 µM, first compound 3.16 µM
[6] = second compound 0.0316 µM, first compound 10 µM
[7] = second compound 0.1 µM, first compound 0.0316 µM
[8] = second compound 0.1 µM, first compound 0.1 µM
[9] = second compound 0.1 µM, first compound 0.316 µM
[10] = second compound 0.1 µM, first compound 1 µM
[11] = second compound 0.1 µM, first compound 3.16 µM
[12] = second compound 0.1 µM, first compound 10 µM
[13] = second compound 0.316 µM, first compound 0.0316 µM
[14] = second compound 0.316 µM, first compound 0.1 µM
[15] = second compound 0.316 µM, first compound 0.316 µM
[16] = second compound 0.316 µM, first compound 1 µM
[17] = second compound 0.316 µM, first compound 3.16 µM
[18] = second compound 0.316 µM, first compound 10 µM
[19] = second compound 1 µM, first compound 0.0316 µM
[20] = second compound 1 µM, first compound 0.1 µM
[21] = second compound 1 µM, first compound 0.316 µM
[22] = second compound 1 µM, first compound 1 µM
[23] = second compound 1 µM, first compound 3.16 µM
[24] = second compound 1 µM, first compound 10 µM
[25] = second compound 3.16 µM, first compound 0.0316 µM
[26] = second compound 3.16 µM, first compound 0.1 µM
[27] = second compound 3.16 µM, first compound 0.316 µM
[28] = second compound 3.16 µM, first compound 1 µM
[29] = second compound 3.16 µM, first compound 3.16 µM
[30] = second compound 3.16 µM, first compound 10 µM
[31] = second compound 10 µM, first compound 0.0316 µM
[32] = second compound 10 µM, first compound 0.1 µM
[33] = second compound 10 µM, first compound 0.316 µM
[34] = second compound 10 µM, first compound 1 µM
[35] = second compound 10 µM, first compound 3.16 µM
[36] = second compound 10 µM, first compound 10 µM
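Note: spheroids exposed to compounds for 7 days before readout.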
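Throughout, for viability, T/C: 100% = DMSO vehicle wells with luminescence normalized to vehicle control.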

SMILES: COc1ccc([C@@H](O)c2cc(-c3ncnc4cc(N5CCOCC5)ccc34)c(F)cc2Cl)nn1 + CN1CCN(c2cc(C(=O)Nc3cc4cc(-c5cnn(C)c5)ccc4cn3)ccn2)CC1
- IC50 (second compound 0.0316 µM): > 10000 nM
- IC50 (second compound 0.1 µM): > 10000 nM
- IC50 (second compound 0.316 µM): < 31.6 nM
- IC50 (second compound 1 µM): < 31.6 nM
- IC50 (second compound 3.16 µM): < 31.6 nM
- IC50 (second compound 10 µM): < 31.6 nM
- viability, T/C [1]: 87.3%
- viability, T/C [2]: 95.6%
- viability, T/C [3]: 88.1%
- viability, T/C [4]: 85.4%
- viability, T/C [5]: 96.9%
- viability, T/C [6]: 103%
- viability, T/C [7]: 88.1%
- viability, T/C [8]: 91.6%
- viability, T/C [9]: 86.3%
- viability, T/C [10]: 113%
- viability, T/C [11]: 105%
- viability, T/C [12]: 97.9%
- viability, T/C [13]: 12.2%
- viability, T/C [14]: 18.2%
- viability, T/C [15]: 17.1%
- viability, T/C [16]: 11.9%
- viability, T/C [17]: 16.2%
- viability, T/C [18]: 13.2%
- viability, T/C [19]: 0.83%
- viability, T/C [20]: 0.2%
- viability, T/C [21]: 1.54%
- viability, T/C [22]: 0.18%
- viability, T/C [23]: 0.2%
- viability, T/C [24]: 1.34%
- viability, T/C [25]: 0.14%
- viability, T/C [26]: 0.2%
- viability, T/C [27]: 0.18%
- viability, T/C [28]: 0.18%
- viability, T/C [29]: 1.47%
- viability, T/C [30]: 1.21%
- viability, T/C [31]: 0.1%
- viability, T/C [32]: 0.16%
- viability, T/C [33]: 0.24%
- viability, T/C [34]: 0.19%
- viability, T/C [35]: 0.2%
- viability, T/C [36]: 1.44%

SMILES: COc1cccc2c1C(=O)c1c(O)c3c(c(O)c1C2=O)CC(O)(C(=O)CO)CC3OC1CC(N)C(O)C(C)O1 (stereo unspecified) + CN1CCN(c2cc(C(=O)Nc3cc4cc(-c5cnn(C)c5)ccc4cn3)ccn2)CC1
- IC50 (second compound 0.0316 µM): 308 nM
- IC50 (second compound 0.1 µM): 247 nM
- IC50 (second compound 0.316 µM): < 31.6 nM
- IC50 (second compound 1 µM): < 31.6 nM
- IC50 (second compound 3.16 µM): < 31.6 nM
- IC50 (second compound 10 µM): < 31.6 nM
- viability, T/C [1]: 105%
- viability, T/C [2]: 109%
- viability, T/C [3]: 48.1%
- viability, T/C [4]: 9.14%
- viability, T/C [5]: 0.19%
- viability, T/C [6]: 0.25%
- viability, T/C [7]: 115%
- viability, T/C [8]: 89.1%
- viability, T/C [9]: 40.7%
- viability, T/C [10]: 5.59%
- viability, T/C [11]: 0.19%
- viability, T/C [12]: 0.21%
- viability, T/C [13]: 18.3%
- viability, T/C [14]: 13.6%
- viability, T/C [15]: 6.17%
- viability, T/C [16]: 0.17%
- viability, T/C [17]: 1.79%
- viability, T/C [18]: 0.82%
- viability, T/C [19]: 0.13%
- viability, T/C [20]: 0.18%
- viability, T/C [21]: 0.16%
- viability, T/C [22]: 0.17%
- viability, T/C [23]: 3.15%
- viability, T/C [24]: 0.74%
- viability, T/C [25]: 1.46%
- viability, T/C [26]: 0.16%
- viability, T/C [27]: 0.94%
- viability, T/C [28]: 2.29%
- viability, T/C [29]: 2.17%
- viability, T/C [30]: 1.43%
- viability, T/C [31]: 0.09%
- viability, T/C [32]: 0.11%
- viability, T/C [33]: 0.22%
- viability, T/C [34]: 2.57%
- viability, T/C [35]: 0.16%
- viability, T/C [36]: 1.03%

- IC50 (second compound 0.0316 µM): 5870 nM
- IC50 (second compound 0.1 µM): 3910 nM
- IC50 (second compound 0.316 µM): < 31.6 nM
- IC50 (second compound 1 µM): < 31.6 nM
- IC50 (second compound 3.16 µM): < 31.6 nM
- IC50 (second compound 10 µM): < 31.6 nM
SMILES: C=C(F)C(=O)N1CCN(c2nc(OCC3CCCN3C)nc3c2CCN(c2cccc4cccc(Cl)c24)C3)CC1CC#N (stereo unspecified) + CNC(=O)c1ccc(Nc2nc(OC3CCCC3)c3c(-c4ccc5nc(C)oc5c4)c[nH]c3n2)c(OC)c1
- viability, T/C [1]: 116%
- viability, T/C [2]: 79.8%
- viability, T/C [3]: 116%
- viability, T/C [4]: 101%
- viability, T/C [5]: 127%
- viability, T/C [6]: 0.2%
- viability, T/C [7]: 57.3%
- viability, T/C [8]: 58.6%
- viability, T/C [9]: 53.5%
- viability, T/C [10]: 68.6%
- viability, T/C [11]: 68.4%
- viability, T/C [12]: 0.17%
- viability, T/C [13]: 35.9%
- viability, T/C [14]: 33.5%
- viability, T/C [15]: 34.2%
- viability, T/C [16]: 28.8%
- viability, T/C [17]: 37.1%
- viability, T/C [18]: 0.14%
- viability, T/C [19]: 20.6%
- viability, T/C [20]: 26.6%
- viability, T/C [21]: 29.4%
- viability, T/C [22]: 22.3%
- viability, T/C [23]: 22.9%
- viability, T/C [24]: 0.13%
- viability, T/C [25]: 16.9%
- viability, T/C [26]: 19.2%
- viability, T/C [27]: 17.3%
- viability, T/C [28]: 17.1%
- viability, T/C [29]: 17.4%
- viability, T/C [30]: 0.17%
- viability, T/C [31]: 17.4%
- viability, T/C [32]: 18.9%
- viability, T/C [33]: 16.9%
- viability, T/C [34]: 16.4%
- viability, T/C [35]: 18.4%
- viability, T/C [36]: 0.23%
